Data set [1] concerns the target T1, C. albicans AOX2 (Candida albicans, UniProt Q9UV71).
T1 construct: twin-strep tag (pET15b.TS, pTS.CalbAOX2) kept; from E. coli FN102; in self-assembled proteoliposomes
T1 sequence (Q9UV71 27-365): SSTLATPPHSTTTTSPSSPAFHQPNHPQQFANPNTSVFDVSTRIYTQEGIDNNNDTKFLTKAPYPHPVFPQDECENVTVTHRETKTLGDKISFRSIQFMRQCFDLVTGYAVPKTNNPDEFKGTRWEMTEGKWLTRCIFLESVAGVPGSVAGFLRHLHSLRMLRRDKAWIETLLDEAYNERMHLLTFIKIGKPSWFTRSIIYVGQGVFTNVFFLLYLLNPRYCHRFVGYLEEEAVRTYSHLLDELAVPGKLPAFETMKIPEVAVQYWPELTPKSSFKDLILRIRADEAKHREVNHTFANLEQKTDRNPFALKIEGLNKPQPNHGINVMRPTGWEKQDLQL
In words: NADH oxidation at […] nm in NDH-2/AOX proteoliposomes, dose-response. The data set is classed as biochemical.

For data set [2], the target named is T2, C. auris AOX (Candidozyma auris, UniProt A0A0L0NPQ3).
T2 construct: twin-strep tag (pET15b.TS, pTS.CaAOX) kept; from E. coli FN102; in self-assembled proteoliposomes
T2 sequence (A0A0L0NPQ3 25-333 limits assumed): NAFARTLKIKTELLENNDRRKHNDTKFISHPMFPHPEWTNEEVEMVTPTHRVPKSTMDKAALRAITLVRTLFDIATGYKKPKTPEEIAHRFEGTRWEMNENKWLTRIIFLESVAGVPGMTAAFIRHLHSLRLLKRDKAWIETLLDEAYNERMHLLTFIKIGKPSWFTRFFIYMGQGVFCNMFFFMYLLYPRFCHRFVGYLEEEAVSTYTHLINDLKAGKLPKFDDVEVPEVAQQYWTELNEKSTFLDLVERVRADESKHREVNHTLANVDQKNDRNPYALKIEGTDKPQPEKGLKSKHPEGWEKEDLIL
The data set is described as above. Type of data set: biochemical.

The next data set deals with T3, NDH-2 (Caldalkalibacillus thermarum, UniProt F5L3B8).
T3 construct: gene CathTA2_0279; His-tagged, from E. coli C41 (plasmid pTRCndh2); predicted mass 44 kDa
T3 sequence (F5L3B8 1-399): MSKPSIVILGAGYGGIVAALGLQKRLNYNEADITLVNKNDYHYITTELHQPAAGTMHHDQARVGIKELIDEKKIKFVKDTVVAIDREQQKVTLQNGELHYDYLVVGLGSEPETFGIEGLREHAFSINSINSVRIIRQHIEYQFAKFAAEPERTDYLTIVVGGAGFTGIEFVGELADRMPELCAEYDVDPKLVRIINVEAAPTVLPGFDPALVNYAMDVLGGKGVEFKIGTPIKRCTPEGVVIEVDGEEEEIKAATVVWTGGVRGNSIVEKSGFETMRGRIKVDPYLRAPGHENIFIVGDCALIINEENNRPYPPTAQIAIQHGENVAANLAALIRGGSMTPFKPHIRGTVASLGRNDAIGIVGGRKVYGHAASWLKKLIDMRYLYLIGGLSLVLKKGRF
As to the kind of experiment: NADH oxidation at […] nm. Type of data set: biochemical. The note with it: 50 mM MOPS pH 7.5, 250 uM Q1, 300 uM NADH.

Data set [3] deals with T2, C. auris AOX. In words: oxygen consumption of NDH-2/AOX proteoliposomes (Oroboros oxygraph), dose-response. The data set is classed as biochemical.
For data set [4], the target named is T1, C. albicans AOX2. The description is as above. The data set is classed as biochemical.
The subject of data set [5] is COc1c(O)c(C)c(C/C=C(\C)CC/C=C(\C)CC/C=C(\C)CC/C=C(\C)CC/C=C(\C)CC/C=C(\C)CC/C=C(\C)CC/C=C(\C)CC/C=C(\C)CCC=C(C)C)c(O)c1OC. In words: purified protein. The note with it: 65 mM MOPS pH 7.5, 300 uM NADH, excess NDH-2, Q10 concentration in the lipid phase.
Substrate in the data set “purified protein”: COc1c(O)c(C)c(C/C=C(\C)CC/C=C(\C)CC/C=C(\C)CC/C=C(\C)CC/C=C(\C)CC/C=C(\C)CC/C=C(\C)CC/C=C(\C)CC/C=C(\C)CCC=C(C)C)c(O)c1OC
As to the kind of experiment: purified protein. The data set is classed as biochemical, Candida albicans. The note with it: 65 mM MOPS pH 7.5, 300 uM NADH, excess NDH-2, Q10 concentration in the lipid phase.

From article PMC8292455, “Kinetic characterisation and inhibitor sensitivity of Candida albicans and Candida auris recombinant AOX expressed in a self-assembled proteoliposome system” (Scientific Reports, 2021) come the findings set out here.

As a reminder, the IC50 is the concentration that inhibits the measured activity by half. Read a low IC50 as greater potency in that assay. Turning to `C/C(=C\Cc1c(O)c(Cl)c(C)c(C=O)c1O)CC/C=C(\C)[C@@H]1CC(=O)C(C)(C)O1` [AF, Ascofuranone], the IC50 on C. albicans AOX2 [1] was 213 ± 27 nM; against C. auris AOX [2], 129 ± 18 nM.

With `CC(C)=CCC/C(C)=C/Cc1c(O)c(Cl)c(C)c(C=O)c1O` [CB, colletochlorin B], the IC50 worked out at 53 ± 16 nM on C. albicans AOX2 [1] and 55 ± 10 nM against C. auris AOX [2]. In the case of `NC(=O)C1=CN([C@@H]2O[C@H](COP(=O)(O)OP(=O)(O)OC[C@H]3O[C@@H](n4cnc5c(N)ncnc54)[C@H](O)[C@@H]3O)[C@@H](O)[C@H]2O)C=CC1` [NADH], on NDH-2, the “NADH oxidation at 340 nm” value was “measured spectrophotometrically by measuring the oxidation of NADH at A340 nm”. `O=C(NO)c1ccccc1O` [SHAM]: the values for the IC50 against C. auris AOX [3] and against C. albicans AOX2 [4] were 5 ± 0.6 mM and 3.5 ± 0.7 mM, respectively. As usually defined, the Km is the concentration of substrate that gives half-maximal velocity. The term kcat denotes the number of substrate molecules converted per active site and unit of time at saturation. Take C. auris AOX (Candidozyma auris): in data set [5], the Km came out at 7.3 ± 1.4 mM and the kcat is 108 ± 3 s⁻¹.

B1: C. albicans AOX2 (Candida albicans) (protein)
chain: T1 sequence (Q9UV71 27-365)
notes: twin-strep tag (pET15b.TS, pTS.CalbAOX2) kept; from E. coli FN102; in self-assembled proteoliposomes
On to B1, for which, in the data set “purified protein”, the Km came to 6.3 ± 1.3 mM and the kcat was 404 ± 51 s⁻¹.
